The record followed here is US5935959A, “Piperazine derivatives and use as cysteine inhibitors” (Senju Pharmaceutical Co., Ltd., priority 1995, dated 1999).

Where two headings read alike, the source gives them in different places.

Holding throughout (type): biochemical
In one experiment the test system is trypsin. Description: Assay of Trypsin-Inhibitory Activity (casein degradation). Conditions: read-out: Trypsin 50% Inhibitory concentration (IC50); casein substrate, pH 8.0, 60 min, 30° C. The method, then:
(§1) The activity of papain which is a cysteine protease and of trypsin (Sigma) which is a serine protease was assayed in accordance with the method described in the literature [Anal. Biochem., 208, 387-392, 1993]. Thus, to a solution containing 0.5 mg/ml casein, 50 mM Tris-HCl (pH 8.0), 20 mM dithiothreitol, and 0.2 mM EDTA was added 2.5 μl of dimethyl sulfoxide containing a varying concentration of the test drug as well as 0.03 unit of papain or trypsin to initiate the reaction. The final liquid volume was adjusted to 250 μl. After 60 minutes of reaction at 30° C., 100 μl of the reaction mixture was transferred to another vessel and following addition of 50 μl of purified water and 100 μl of 50% Coumassie brilliant blue solution, the mixture was allowed to stand at room temperature for 15 minutes. The absorbance of the mixture was then measured at 595 nm. Using the value found similarly by adding 2.5 μl of dimethyl sulfoxide not containing the test drug as control and the value found without addition of the enzyme as blank, IC50 was determined in the same manner as above. E64 and leupeptin were used as reference drugs.

The target in the next experiment is T1, cathepsin L (Homo sapiens, UniProt P07711).
T1 construct: purchased Cosmo Bio
T1 sequence (P07711 114-333, species assumed): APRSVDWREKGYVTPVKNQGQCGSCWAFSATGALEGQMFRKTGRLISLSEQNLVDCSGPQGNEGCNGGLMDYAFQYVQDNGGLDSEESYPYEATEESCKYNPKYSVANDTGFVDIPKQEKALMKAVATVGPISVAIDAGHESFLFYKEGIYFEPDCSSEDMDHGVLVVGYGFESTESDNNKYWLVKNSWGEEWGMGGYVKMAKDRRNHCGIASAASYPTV
Briefly: Assay of Cathepsin L-Inhibitory Activity (Z-Phe-Arg-MCA). To be noted: Z-Phe-Arg-MCA 20 μM, pH 5.5, 20 min, 30° C. The method, then: The activity of cathepsinL (Cosmo Bio), a cysteine protease, was assayed by the method described in the literature [Methods in Enzymology, 80, 535-561, 1981]. Thus, to a solution containing 85 mM acetate buffer (pH 5.5), 2 mM dithiothreitol, 1 mM EDTA, 2 μg cathepsin L, and a varying concentration of the test compound was added 20 μM carbobenzoxy-L-phenylalanyl-L-arginine-4-methyl-coumaryl-7-amide (Z-Phe-Arg-MCA) to initiate the reaction at the final liquid volume of 200 μl. After 20 minutes of reaction at 30° C., 20 μl of 1M Tris-HCl (pH 8.0) was added so as to stop the reaction. The amount of liberated 4-methyl-7-aminocoumarin was determined with a fluorospectrometer at an excitation wavelength of 360 nm and a fluorescent emission wavelength of 450 nm. Using the value found without addition of the test drug as control and the value found without addition of the enzyme as blank, IC50 was determined in the same manner as above. E64 was used as a reference drug.

The target of a further experiment is T2, μ-calpain (Homo sapiens, UniProt P07384).
T2 construct: purchased Nakarai Tesque
T2 sequence (P07384 1-714): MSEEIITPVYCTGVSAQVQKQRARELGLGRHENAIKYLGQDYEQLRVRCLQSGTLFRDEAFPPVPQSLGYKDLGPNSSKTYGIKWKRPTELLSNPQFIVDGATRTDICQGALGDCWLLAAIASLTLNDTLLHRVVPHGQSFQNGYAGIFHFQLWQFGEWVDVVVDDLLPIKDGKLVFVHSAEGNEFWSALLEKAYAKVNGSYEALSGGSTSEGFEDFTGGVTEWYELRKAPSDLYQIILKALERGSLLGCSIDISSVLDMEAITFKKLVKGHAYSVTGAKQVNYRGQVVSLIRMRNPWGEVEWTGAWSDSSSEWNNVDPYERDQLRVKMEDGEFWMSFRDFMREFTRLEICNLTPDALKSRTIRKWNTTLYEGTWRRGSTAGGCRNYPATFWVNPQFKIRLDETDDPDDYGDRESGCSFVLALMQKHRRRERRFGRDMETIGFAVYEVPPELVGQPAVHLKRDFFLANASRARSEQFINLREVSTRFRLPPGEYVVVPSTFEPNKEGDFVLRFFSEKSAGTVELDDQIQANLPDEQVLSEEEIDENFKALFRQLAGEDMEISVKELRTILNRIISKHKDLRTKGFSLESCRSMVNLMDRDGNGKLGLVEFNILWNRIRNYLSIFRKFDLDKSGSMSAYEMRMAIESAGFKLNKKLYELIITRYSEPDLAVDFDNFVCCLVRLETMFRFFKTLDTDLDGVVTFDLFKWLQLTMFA
T2 sequence (P04632 1-268 partner): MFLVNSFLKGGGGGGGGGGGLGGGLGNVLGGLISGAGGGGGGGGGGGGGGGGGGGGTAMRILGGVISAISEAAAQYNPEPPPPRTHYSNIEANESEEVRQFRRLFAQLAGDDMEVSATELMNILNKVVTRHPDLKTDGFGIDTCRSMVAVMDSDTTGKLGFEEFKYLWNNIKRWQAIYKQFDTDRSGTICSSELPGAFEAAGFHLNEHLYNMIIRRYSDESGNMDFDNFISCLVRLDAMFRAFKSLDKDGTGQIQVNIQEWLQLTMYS
Description: Assay of μ-Calpain-Inhibitory Activity (casein degradation). To be noted: casein substrate, pH 7.4, 60 min, 30° C. As for the experimental part: The activity of μ-calpain (Nakarai Tesque) was assayed in accordance with the procedure described in the literature [Anal. Biochem., 208, 387-392 (1993)]. Thus, to a solution containing 0.5 mg/ml casein, 50 mM Tris-HCl (pH 7.4), 20 mM dithiothreitol, and 4 mM calcium chloride was added 2.5 μl of a dimethyl sulfoxide solution containing a varying concentration of the test drug as well as 0.03 unit of μ-calpain to initiate the reaction. The final liquid volume was 250 μl. After 60 minutes of reaction at 30° C., 100 μl of the reaction mixture was transferred to another vessel, to which 50 μl of purified water and 100 μl of 50% Coumassie brilliant blue solution were added. The mixture was allowed to stand at room temperature for 15 minutes and the absorbance was measured at 595 nm. As a control, 2.5 μl of dimethyl sulfoxide not containing the test drug was added and the mixture was treated in the same manner as above. The absorbance value thus found was used as the control value. Similarly, the value found by adding 0.2 mM EDTA in lieu of 4 mM aqueous calcium chloride solution was used as the blank value. […] E64 which is a known cysteine protease inhibition compound was used as a reference drug. [formula]

A further experiment deals with T3, papain (Carica papaya, UniProt P00784).
T3 construct: purchased Sigma
T3 sequence (P00784 134-345): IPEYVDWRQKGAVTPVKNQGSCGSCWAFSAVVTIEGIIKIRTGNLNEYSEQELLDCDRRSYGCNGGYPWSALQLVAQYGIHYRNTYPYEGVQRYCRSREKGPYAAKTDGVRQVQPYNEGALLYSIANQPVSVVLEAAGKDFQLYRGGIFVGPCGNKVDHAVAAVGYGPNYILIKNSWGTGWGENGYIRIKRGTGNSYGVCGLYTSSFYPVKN
Description: Assay of Papain-Inhibitory Activity (casein degradation). Conditions: casein substrate, pH 8.0, 60 min, 30° C. The method, then: as §1

For `O=C(O)[C@H]1O[C@@H]1C(=O)N[C@@H](Cc1ccccc1)C(=O)N1CCN(c2ccc(F)cc2)CC1` [Example 21, (2s,3s)-3-[[[[(1s)-1-[[4-(4-fluorophenyl)-1-piperazinyl]carbonyl]-2-phenyl]ethyl]amino]carbonyl]oxiranecarboxylic acid], the IC50 in the experiment with trypsin is more than 3000 µM.

Regarding `CC(C)C[C@H](NC(=O)[C@H]1O[C@@H]1C(=O)O)C(=O)N1CCN(c2ccc(F)cc2)CC1` [Example 23, (2s,3s)-3-[[[[(1s)-1-[[4-(4-fluorophenyl)-1-piperazinyl]carbonyl]-3-methyl]butyl]amino]carbonyl]oxiranecarboxylic acid], in the experiment on trypsin, the IC50 is more than 3000 µM.

`Cc1ccc(S(=O)(=O)N2CCN(C(=O)[C@H](CC(C)C)NC(=O)[C@H]3O[C@@H]3C(=O)O)CC2)cc1` [Example 26, (2s,3s)-3-[[[[(1s)-1-[[4-(4-methylphenylsulfonyl)-1-piperazinyl]carbonyl]-3-methyl]butyl]amino]carbonyl]oxiranecarboxylic acid]: the IC50 in the experiment on trypsin is more than 3000 µM.

For the compound `CC(C)C[C@H](NC(=O)[C@H]1O[C@@H]1C(=O)O)C(=O)N1CCN(c2ccccc2Cl)CC1` [Example 27, (2s,3s)-3-[[[[(1s)-1-[[4-(2-chlorophenyl)-1-piperazinyl]carbonyl]3-methyl]butyl]amino]carbonyl]oxiranecarboxylic acid], the IC50 in the experiment on trypsin is more than 3000 µM.

For `O=C(O)[C@H]1O[C@@H]1C(=O)NCC(=O)N1CCN(c2ccccc2Cl)CC1` [Example 32, (2s,3s)-3-[[[[[4-(2-chlorophenyl)-1-piperazinyl]carbonyl]methyl]amino]carbonyl]oxiranecarboxylic acid], the values for the IC50 in the experiment on trypsin, on cathepsin L (read-out: Cathepsin L 50% Inhibitory concentration (IC50)) and at μ-calpain were more than 3000 µM, 37.6 µM and 17.5 µM, respectively.

Consider `CC[C@H](C)[C@H](NC(=O)[C@H]1O[C@@H]1C(=O)O)C(=O)N1CCN(c2ccccc2Cl)CC1` [Example 34, (2s,3s)-3-[[[[(1s)-1-[[4-(2-chlorophenyl)-1-piperazinyl]carbonyl]-2-methyl]butyl]amino]carbonyl]oxiranecarboxylic acid], for which the IC50 with trypsin was more than 3000 µM; on cathepsin L, 0.009 µM.

On μ-calpain, `CC(=O)NCSC[C@H](NC(=O)[C@H]1O[C@@H]1C(=O)O)C(=O)N1CCN(c2ccccc2Cl)CC1` [Example 38, (2s,3s)-3-[[[[(1s)-1-[[4-(2-chlorophenyl)-1-piperazinyl]carbonyl]-2-acetylaminomethylthio]ethyl]amino]carbonyl]oxiranecarboxylic acid] came in with an IC50 of 3.9 µM.

`O=C(O)[C@H]1O[C@@H]1C(=O)NC1(C(=O)N2CCN(c3ccc(F)cc3)CC2)CCCC1` [Example 41, (2s,3s)-3-[[[(1s)-1-[[4-(4-fluorophenyl)-1-piperazinyl]carbonyl]-1-cyclopentyl]amino]carbonyl]oxiranecarboxylic acid]: the IC50 against μ-calpain worked out at 145 µM.

Turning to `CC(C)C[C@H](NC(=O)[C@H]1O[C@@H]1C(=O)O)C(=O)NCCCCNC(=N)N` [Example E-64, reference compound], the IC50 is 0.032 µM on papain, more than 300 µM in the experiment with trypsin, 0.015 µM on cathepsin L and 0.66 µM at μ-calpain.

For `CC(=O)N[C@@H](CC(C)C)C(=O)N[C@@H](CC(C)C)C(=O)N[C@H](C=O)CCCNC(=N)N` [Leupeptin, reference compound], the IC50 with trypsin came out at 7.4 µM.
